What was measured:
CYPSE (Flatsedge) = experiment: Preemergence weed control under flooded paddy conditions; type: in vivo, Cyperus serotinus; conditions: rated 3-4 weeks after treatment
How it was run: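 Seeds or propagules sown in silt loam kept flooded 1.5-3 cm; compounds in 50/50 acetone/water pipetted into flood water at about 0.0313 to 0.500 kg/ha. Greenhouse; visual 0-9 rating versus untreated control 3-4 weeks after treatment.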

AMBEL (Ragweed, Common) [1] = experiment: Postemergence herbicidal evaluation; type: in vivo, Ambrosia artemisifolia; conditions: postemergence
How it was run: (§1)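 Seedlings grown about two weeks were sprayed at 40 psi with compound dispersed in 50/50 acetone/water plus 0.5% TWEEN 20, at about 0.0156 to 0.500 kg/ha. Plants were kept in the greenhouse and scored 4–5 weeks later on a 0–9 visual scale against untreated controls.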

ECHCG (Barnyardgrass) = experiment: Postemergence herbicidal evaluation; type: in vivo, Echinochloa crus-galli; conditions: postemergence
How it was run: as §1

ZEAMX (Corn, Field) = experiment: Postemergence herbicidal evaluation; type: in vivo, Zea mays; conditions: postemergence
How it was run: as §1

[2] = test system: CHEAL (Lambsquarters, Common); experiment: Postemergence herbicidal evaluation; type: in vivo, Chenopodium album; conditions: postemergence
How it was run: as §1

GALAP (Galium) = experiment: Preemergence herbicidal evaluation; type: in vivo, Galium aparine; conditions: rated 4-5 weeks after treatment
How it was run: (§2)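 Rating at 4–5 wk post-spray on a 0–9 visual scale vs control. Application: aqueous acetone, ~0.0156–0.500 kg/ha, to soil surface after seeding, preemergence.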

[3] = test system: CHEAL (Lambsquarters, Common); experiment: Preemergence herbicidal evaluation; type: in vivo, Chenopodium album; conditions: rated 4-5 weeks after treatment
How it was run: as §2

AMBEL (Ragweed, Common) [4] = experiment: Preemergence herbicidal evaluation; type: in vivo, Ambrosia artemisifolia; conditions: rated 4-5 weeks after treatment
How it was run: as §2

ABUTH (Velvetleaf) = experiment: Postemergence herbicidal evaluation; type: in vivo, Abutilon theophrasti; conditions: postemergence
How it was run: as §1

[5] = test system: GLXMAW (Soybean, Williams); experiment: Postemergence herbicidal evaluation; type: in vivo, Glycine max, (L.) Merr. cv Williams; conditions: postemergence
How it was run: as §1

CASOB (Sicklepod) = experiment: Preemergence herbicidal evaluation; type: in vivo, Cassia obtusifolia; conditions: rated 4-5 weeks after treatment
How it was run: as §2

ORYSAT (Rice, Tebonnet) = experiment: Postemergence herbicidal evaluation; type: in vivo, Oryza sativa, (L.) Tebonnet; conditions: postemergence
How it was run: as §1

## C#CC(C)N1C(=O)CSC1=Nc1cc(-n2c(=O)cc(C(F)(F)F)n(C)c2=O)c(F)cc1Cl (stereo not drawn) [Compound 165, 3-{4-Chloro-2-fluoro-5-{[3-(1-methyl-2-propynyl)-4-oxo-2-thiazolidinylidene]amino}phenyl}-1-methyl-6-(trifluoromethyl)-2,4(1H,3H)-pyrimidinedione]
CYPSE (Flatsedge); 0.0313 kg/ha
  herbicidal effect rating, CYPSE: 0.0
CYPSE (Flatsedge); 0.1250 kg/ha
  herbicidal effect rating, CYPSE: 0.0
CYPSE (Flatsedge); 0.2500 kg/ha
  herbicidal effect rating, CYPSE: 3.0
AMBEL (Ragweed, Common) [1]; rate 0.0156 kg/ha
  herbicidal rating AMBEL: 2.0
AMBEL (Ragweed, Common) [1]; rate 0.0313 kg/ha
  herbicidal rating AMBEL: 6.0
AMBEL (Ragweed, Common) [1]; rate 0.0625 kg/ha
  herbicidal rating AMBEL: 7.0
AMBEL (Ragweed, Common) [1]; rate 0.1250 kg/ha
  herbicidal rating AMBEL: 9.0
ECHCG (Barnyardgrass); rate 0.0156 kg/ha
  herbicidal rating ECHCG: 2.0
ECHCG (Barnyardgrass); rate 0.0313 kg/ha
  herbicidal rating ECHCG: 4.0
ECHCG (Barnyardgrass); rate 0.0625 kg/ha
  herbicidal rating ECHCG: 3.0
ECHCG (Barnyardgrass); rate 0.1250 kg/ha
  herbicidal rating ECHCG: 5.0
ZEAMX (Corn, Field); rate 0.0156 kg/ha
  herbicidal rating ZEAMX: 4
ZEAMX (Corn, Field); rate 0.0313 kg/ha
  herbicidal rating ZEAMX: 5.0
ZEAMX (Corn, Field); rate 0.0625 kg/ha
  herbicidal rating ZEAMX: 5.0
ZEAMX (Corn, Field); rate 0.1250 kg/ha
  herbicidal rating ZEAMX: 5.5
[2]; rate 0.0156 kg/ha
  herbicidal rating CHEAL: 5.0
[2]; rate 0.0313 kg/ha
  herbicidal rating CHEAL: 6.0
[2]; rate 0.0625 kg/ha
  herbicidal rating CHEAL: 7.0
[2]; rate 0.1250 kg/ha
  herbicidal rating CHEAL: 9.0
GALAP (Galium); 0.0156 kg/ha
  Preemergence herbicidal rating GALAP: 0.0
GALAP (Galium); 0.0313 kg/ha
  Preemergence herbicidal rating GALAP: 0.0
GALAP (Galium); 0.0625 kg/ha
  Preemergence herbicidal rating GALAP: 0.0
GALAP (Galium); 0.1250 kg/ha
  Preemergence herbicidal rating GALAP: 4.0
GALAP (Galium); 0.2500 kg/ha
  Preemergence herbicidal rating GALAP: 7.0
GALAP (Galium); 0.5000 kg/ha
  Preemergence herbicidal rating GALAP: 8.0
[3]; 0.0156 kg/ha
  Preemergence herbicidal rating CHEAL: 4.0
[3]; 0.0313 kg/ha
  Preemergence herbicidal rating CHEAL: 9.0
[3]; 0.0625 kg/ha
  Preemergence herbicidal rating CHEAL: 9.0
[3]; 0.1250 kg/ha
  Preemergence herbicidal rating CHEAL: 9.0
[3]; 0.2500 kg/ha
  Preemergence herbicidal rating CHEAL: 9.0
[3]; 0.5000 kg/ha
  Preemergence herbicidal rating CHEAL: 9.0
AMBEL (Ragweed, Common) [4]; 0.0156 kg/ha
  Preemergence herbicidal rating AMBEL: 0.0
AMBEL (Ragweed, Common) [4]; 0.0313 kg/ha
  Preemergence herbicidal rating AMBEL: 1.0
AMBEL (Ragweed, Common) [4]; 0.0625 kg/ha
  Preemergence herbicidal rating AMBEL: 0.0
AMBEL (Ragweed, Common) [4]; 0.1250 kg/ha
  Preemergence herbicidal rating AMBEL: 7.0
AMBEL (Ragweed, Common) [4]; 0.2500 kg/ha
  Preemergence herbicidal rating AMBEL: 7.0
AMBEL (Ragweed, Common) [4]; 0.5000 kg/ha
  Preemergence herbicidal rating AMBEL: 9.0
ABUTH (Velvetleaf); rate 0.0156 kg/ha
  herbicidal rating ABUTH: 9.0
ABUTH (Velvetleaf); rate 0.0313 kg/ha
  herbicidal rating ABUTH: 9.0
ABUTH (Velvetleaf); rate 0.0625 kg/ha
  herbicidal rating ABUTH: 9.0
ABUTH (Velvetleaf); rate 0.1250 kg/ha
  herbicidal rating ABUTH: 9.0
[5]; rate 0.0156 kg/ha
  herbicidal rating GLXMAW: 5.0
[5]; rate 0.0313 kg/ha
  herbicidal rating GLXMAW: 5.0
[5]; rate 0.0625 kg/ha
  herbicidal rating GLXMAW: 6.5
[5]; rate 0.1250 kg/ha
  herbicidal rating GLXMAW: 7.0
CASOB (Sicklepod); 0.0313 kg/ha
  Preemergence herbicidal rating CASOB: 0.0
CASOB (Sicklepod); 0.0625 kg/ha
  Preemergence herbicidal rating CASOB: 0.0
CASOB (Sicklepod); 0.1250 kg/ha
  Preemergence herbicidal rating CASOB: 1.0
CASOB (Sicklepod); 0.2500 kg/ha
  Preemergence herbicidal rating CASOB: 7.0
CASOB (Sicklepod); 0.5000 kg/ha
  Preemergence herbicidal rating CASOB: 7.0
ORYSAT (Rice, Tebonnet); rate 0.0156 kg/ha
  herbicidal rating ORYSAT: 2.0
ORYSAT (Rice, Tebonnet); rate 0.0313 kg/ha
  herbicidal rating ORYSAT: 1.5
ORYSAT (Rice, Tebonnet); rate 0.0625 kg/ha
  herbicidal rating ORYSAT: 3.0
ORYSAT (Rice, Tebonnet); rate 0.1250 kg/ha
  herbicidal rating ORYSAT: 4.0

From patent US20020137929A1, “1 - (3-heterocyclylphenyl) isothiourea, -isourea, -guanidine and -amidine herbicidal agents” (Intellectual Property Department, BASF Aktiengesellschaft, priority 1998, published 2002)
